# Tests used:
# rgRSV224 virus = experiment: microbe, parasite or virus in culture; format: cell-based, respiratory syncytial virus (RSV); details: for EC50: human respiratory syncytial virus, HeLa, 72 h, read-out: RSV HELA pEC50 (converted); for RSV HELA pEC50: rgRSV224 virus MOI=1, HeLa cells, GFP expression three days post-virus exposure
# Experimental for HeLa cells: Black 384-well clear-bottom microtiter plates (Corning, Amsterdam, The Netherlands) were filled via acoustic drop ejection using the echo liquid handler (Labcyte, Sunnyvale, Calif.). 200 nL of compound stock solutions (100% DMSO) were transferred to the assay plates. 9 serial 4-fold dilutions of compound were made, creating per quadrant the same compound concentration. The assay was initiated by adding 10 μL of culture medium to each well (RPMI medium without phenol red, 10% FBS-heat inactivated, 0.04% gentamycin (50 mg/mL). All addition steps are done by using a multidrop dispenser (Thermo Scientific, Erembodegem, Belgium). Next, rgRSV224 virus (MOI=1) diluted in culture medium was added to the plates. rgRSV224 virus is an engineered virus that includes an additional GFP gene (Hallak L K, Spillmann D, Collins P L, Peeples M E. Glycosaminoglycan sulfation requirements for respiratory syncytial virus infection; Journal of virology (2000), 74(22), 10508-13) and was in-licensed from the NIH (Bethesda, Md., USA). Finally, 20 μL of a HeLa cell suspension (3,000 cells/well) were plated. Medium, virus- and mock-infected controls were included in each test. The wells contain 0.05% DMSO per volume. Cells were incubated at 37° C. in a 5% CO2 atmosphere. Three days post-virus exposure, viral replication was quantified by measuring GFP expression in the cells by an in house developed MSM laser microscope (Tibotec, Beerse, Belgium). The EC50 was defined as the 50% inhibitory concentration for GFP expression. In parallel, compounds were incubated for three days in a set of white 384-well microtiter plates (Corning) and the cytotoxicity of compounds in HeLa cells was determined by measuring the ATP content of the cells using the ATPlite kit (Perkin Elmer, Zaventem, Belgium) according to the manufacturer's instructions. The CC50 was defined as the 50% concentration for cytotoxicity.
Structure (SMILES),EC50 (rgRSV224 virus),TOX HELA pCC50 (HeLa cells),RSV HELA pEC50 (rgRSV224 virus)
"Cc1ccc(NS(C)(=O)=O)c(C(=O)N2CCCCC2c2cc3nc4c(c(N(C)C)n3n2)CCCN4C)c1 (stereo not drawn) [Compound P26, N-(2-(2-(9-(dimethylamino)-5-methyl-5,6,7,8-tetrahydropyrazolo-[1,5-a]pyrido[2,3-d]pyrimidin-2-yl)piperidine-1-carbonyl)-4-methylphenyl)-methane-sulfonamide]",1.58 nM,4.4,–
"Cc1cccc2nc(Cl)nc(N3CCCCC3c3cc4nc5c(c(N6CCOCC6)n4n3)CCCC5)c12 (stereo not drawn) [Compound P6, 4-(2-(1-(2-chloro-5-methylquinazolin-4-yl)piperidin-2-yl)-5,6,7,8-tetrahydropyrazolo[5,1-b]quinazolin-9-yl)morpholine]",1200 nM,4.8,–
"Cc1cccc2nc(NS(C)(=O)=O)nc(N3CCCCC3c3cc4nc5c(c(N6CCOCC6)n4n3)CCCC5)c12 (stereo not drawn) [Compound P7, N-(5-methyl-4-(2-(9-morpholino-5,6,7,8-tetrahydropyrazolo[5,1-b]-quinazolin-2-yl)piperidin-1-yl)quinazolin-2-yl)methanesulfonamide]",6.03 nM,4.2,–
"COc1cccc2ncnc(N3CCCCC3c3cc4nc5c(c(N6CCOCC6)n4n3)CCCC5)c12 (stereo not drawn) [Compound P12, 4-(2-(1-(5-methoxyquinazolin-4-yl)piperidin-2-yl)-5,6,7,8-tetrahydropyrazolo[5,1-b]quinazolin-9-yl)morpholine]",75.9 nM,4.4,–
"Cc1ccc(NS(C)(=O)=O)c(C(=O)N2CCCCC2c2cc3nc4c(c(N5CCOCC5)n3n2)CCOC4)c1 (stereo not drawn) [Compound P28, N-(4-methyl-2-(2-(9-morpholino-7,8-dihydro-5H-pyrano[3,4-d]pyrazolo-[1,5-a]pyrimidin-2-yl)piperidine-1-carbonyl)phenyl)methane-sulfonamide]",355 nM,4.6,–
"Cc1cccc2nc(NS(C)(=O)=O)nc(N3CCCCC3c3cc4nc5c(c(N6CCOCC6)n4n3)CCC5)c12 (stereo not drawn) [Compound P41, N-(5-methyl-4-(2-(8-morpholino-6,7-dihydro-5H-cyclopenta[d]pyrazolo-[1,5-a]pyrimidin-2-yl)piperidin-1-yl)quinazolin-2-yl)methanesulfonamide]",229 nM,4,–
"CCOc1nc(N2CCCCC2c2cc3nc4c(c(N5CCOCC5)n3n2)COCC4)c2c(C)cccc2n1 (stereo not drawn) [Compound P33, 2-(1-(2-ethoxy-5-methylquinazolin-4-yl)piperidin-2-yl)-9-morpholino-6,8-dihydro-5H-pyrano[4,3-d]pyrazolo[1,5-a]pyrimidine]",813 nM,4.4,–
"Cc1ccc2nc(NS(C)(=O)=O)nc(N3CCCCC3c3cc4nc5c(c(N6CCOCC6)n4n3)CCCC5)c2c1 (stereo not drawn) [Compound P9, N-(6-methyl-4-(2-(9-morpholino-5,6,7,8-tetrahydropyrazolo[5,1-b]-quinazolin-2-yl)piperidin-1-yl)quinazolin-2-yl)methanesulfonamide]",13.5 nM,4.3,–
"Cc1ccc(NS(C)(=O)=O)c(C(=O)N2CCCCC2c2cc3nc4c(c(N5CCOCC5)n3n2)CCCCC4)c1 (stereo not drawn) [Compound P23, N-(4-methyl-2-(2-(10-morpholino-6,7,8,9-tetrahydro-5H-cyclohepta[d]-pyrazolo[1,5-a]pyrimidin-2-yl)piperidine-1-carbonyl)phenyl)-methanesulfonamide]",66.1 nM,4.6,–
"Cc1ccc(NS(C)(=O)=O)c(C(=O)N2CCCCC2c2cc3nc4c(c(N5CCOCC5)n3n2)CCC4)c1 (stereo not drawn) [Compound P20, N-(4-methyl-2-(2-(8-morpholino-6,7-dihydro-5H-cyclopenta[d]pyrazolo-[1,5-a]pyrimidin-2-yl)piperidine-1-carbonyl)phenyl)methanesulfonamide]",22.9 nM,4.2,–
Cc1nc2cc([C@H]3CCCCN3c3ncnc4cccc(C)c34)nn2c2c1CCCC2 [Compound P39],–,4.9,5.55
"Cc1nc2cc(C3CCCCN3c3ncnc4cccc(C)c34)nn2c2c1CCCC2 (racemic) [Compound P36, 5-methyl-2-(1-(5-methylquinazolin-4-yl)piperidin-2-yl)-6,7,8,9-tetrahydropyrazolo[1,5-a]quinazoline]",977 nM,4.6,–
"Cc1cccc2ncnc(N3CCCCC3c3cc4nc5c(c(N6CCCC6)n4n3)CCC5)c12 (stereo not drawn) [Compound P22, 2-(1-(5-methylquinazolin-4-yl)piperidin-2-yl)-8-(pyrrolidin-1-yl)-6,7-dihydro-5H-cyclopenta[d]pyrazolo[1,5-a]pyrimidine]",282 nM,4.6,–
Cc1cccc2ncnc(N3CCCC[C@H]3c3cc4nc5c(c(C)n4n3)CCCC5)c12 [Compound P38],–,4.6,6.79
"CCc1ccc2ncnc(N3CCCCC3c3cc4nc5c(c(N6CCOCC6)n4n3)CCCC5)c2c1C (stereo not drawn) [Compound P13, 4-(2-(1-(6-ethyl-5-methylquinazolin-4-yl)piperidin-2-yl)-5,6,7,8-tetrahydropyrazolo[5,1-b]quinazolin-9-yl)morpholine]",724 nM,4.7,–
Cc1nc2cc([C@@H]3CCCCN3c3ncnc4cccc(C)c34)nn2c2c1CCCC2 [Compound P40],–,4.7,6.7
"Cc1cccc2ncnc(N3CCCCC3c3cc4nc5c(c(N6CCOCC6)n4n3)COCC5)c12 (stereo not drawn) [Compound P30, 2-(1-(5-methylquinazolin-4-yl)piperidin-2-yl)-9-morpholino-6,8-dihydro-5H-pyrano[4,3-d]pyrazolo[1,5-a]pyrimidine]",282 nM,4,–
"Cc1ccc(NS(C)(=O)=O)c(C(=O)N2CCCCC2c2cc3nc4c(c(N)n3n2)CCCC4)c1 (stereo not drawn) [Compound P19, N-(2-(2-(9-amino-5,6,7,8-tetrahydropyrazolo[5,1-b]quinazolin-2-yl)-piperidine-1-carbonyl)-4-methylphenyl)methanesulfonamide]",19.5 nM,4.3,–
"Cc1ccc(NS(C)(=O)=O)c(C(=O)N2CCCCC2c2cc3nc4c(c(O)n3n2)CCCC4)c1 (stereo not drawn) [Compound P14, N-(2-(2-(9-hydroxy-5,6,7,8-tetrahydropyrazolo[5,1-b]quinazolin-2-yl)-piperidine-1-carbonyl)-4-methylphenyl)methanesulfonamide]",40.7 nM,4.3,–
"Cc1cccc2ncnc(N3CCCCC3c3cc4nc5c(c(N6CCOCC6)n4n3)CCCC5)c12 (stereo not drawn) [Compound P5, 4-(2-(1-(5-methylquinazolin-4-yl)piperidin-2-yl)-5,6,7,8-tetrahydropyrazolo[5,1-b]quinazolin-9-yl)morpholine]",275 nM,4.6,–
"Cc1cccc2ncnc(N3CCCCC3c3cc4nc5c(c(N6CCOCC6)n4n3)CCC5)c12 (stereo not drawn) [Compound P21, 4-(2-(1-(5-methylquinazolin-4-yl)piperidin-2-yl)-6,7-dihydro-5H-cyclopenta[d]pyrazolo[1,5-a]pyrimidin-8-yl)morpholine]",708 nM,4.6,–
"Cc1ccc(NS(C)(=O)=O)c(C(=O)N2CCCCC2c2cc3nc4c(cn3n2)CCCC4)c1 (stereo not drawn) [Compound P17, N-(4-methyl-2-(2-(5,6,7,8-tetrahydropyrazolo[5,1-b]quinazolin-2-yl)-piperidine-1-carbonyl)phenyl)methanesulfonamide]",97.7 nM,4.6,–
"Fc1cccc2ncnc(N3CCCCC3c3cc4nc5c(c(N6CCOCC6)n4n3)CCCC5)c12 (stereo not drawn) [Compound P10, 4-(2-(1-(5-fluoroquinazolin-4-yl)piperidin-2-yl)-5,6,7,8-tetrahydropyrazolo-[5,1-b]quinazolin-9-yl)morpholine]",891 nM,4.6,–
"Cc1cccc2ncnc(N3CCCCC3c3cc4nc5c(c(N(C)C)n4n3)CCCC5)c12 (stereo not drawn) [Compound P16, N,N-dimethyl-2-(1-(5-methylquinazolin-4-yl)piperidin-2-yl)-5,6,7,8-tetrahydropyrazolo[5,1-b]quinazolin-9-amine]",407 nM,4,–
"Cc1ccc(NS(C)(=O)=O)c(C(=O)N2CCCCC2c2cc3nc4c(c(N(C)C)n3n2)CCCC4)c1 (stereo not drawn) [Compound P15, N-(2-(2-(9-(dimethylamino)-5,6,7,8-tetrahydropyrazolo[5,1-b]quinazolin-2-yl)piperidine-1-carbonyl)-4-methylphenyl)methanesulfonamide]",1.78 nM,4.6,–
Cc1cccc2ncnc(N3CCCC[C@@H]3c3cc4nc5c(c(C)n4n3)CCCC5)c12 [Compound P37],–,4.4,5.11
"Cc1ccc(NS(C)(=O)=O)c(C(=O)N2CCCCC2c2cc3nc4c(c(N5CCOCC5)n3n2)CCCC4)c1 (racemic) [Compound P1, N-(4-methyl-2-(2-(9-morpholino-5,6,7,8-tetrahydropyrazolo[5,1-b]quinazolin-2-yl)piperidine-1-carbonyl)phenyl)methanesulfonamide]",1.78 nM,4.4,–
"Cc1ccc(NS(C)(=O)=O)c(C(=O)N2CCCC[C@@H]2c2cc3nc4c(c(N5CCOCC5)n3n2)CCCC4)c1 [Compound P2, (R)—N-(4-methyl-2-(2-(9-morpholino-5,6,7,8-tetrahydropyrazolo[5,1-b]quinazolin-2-yl)-piperidine-1-carbonyl)phenyl)methanesulfonamide]",13.2 nM,4.3,–
"Cc1ccc2ncnc(N3CCCCC3c3cc4nc5c(c(N6CCOCC6)n4n3)CCCC5)c2c1 (stereo not drawn) [Compound P4, 4-(2-(1-(6-methylquinazolin-4-yl)piperidin-2-yl)-5,6,7,8-tetrahydropyrazolo[5,1-b]quinazolin-9-yl)morpholine]",166 nM,4.7,–
"Cc1ccc(NS(C)(=O)=O)c(C(=O)N2CCCC[C@H]2c2cc3nc4c(c(N5CCOCC5)n3n2)CCCC4)c1 [Compound P3, (S)—N-(4-methyl-2-(2-(9-morpholino-5,6,7,8-tetrahydropyrazolo[5,1-b]quinazolin-2-yl)piperidine-1-carbonyl)-phenyl)methanesulfonamide]",0.562 nM,4.5,–

# Source: patent publication US10131673B2, “Piperidine substituted tricyclic pyrazolo[1,5-a]pyrimidine derivatives with inhibitory activity on the replication of the respiratory syncytial virus (RSV)” (priority 2014, dated 2018)
